From ChEMBL document CHEMBL3046208, “Natural and synthetic podolactones with potential use as natural herbicide models” (2000)
Calls of active or inactive are those of the source.

Assays:
Lepidium sativum [1] = assay: Stimulation of root length of Lepidium sativum at 1 uM after 5 days relative to untreated control; type: functional
Lactuca sativa [2] = assay: Stimulation of germination of Lactuca sativa cv. Nigra (lettuce) at 0.1 mM after 5 days relative to untreated control; type: functional
Solanum lycopersicum [3] = assay: Inhibition of shoot length of Solanum lycopersicum (tomato) at 10 uM after 5 days relative to untreated control; type: functional, organism-based
Lactuca sativa [4] = assay: Stimulation of germination of Lactuca sativa cv. Roman (lettuce) at 0.1 mM after 5 days relative to untreated control; type: functional
Triticum aestivum [5] = assay: Stimulation of shoot length of Triticum aestivum (wheat) at 0.1 mM after 5 days relative to untreated control; type: functional
Solanum lycopersicum [6] = assay: Inhibition of root length of Solanum lycopersicum (tomato) at 1 uM after 5 days relative to untreated control; type: functional; details: 120 h
Lactuca sativa [7] = assay: Inhibition of shoot length of Lactuca sativa cv. Nigra (lettuce) at 0.1 mM after 5 days relative to untreated control; type: functional; details: 120 h
Solanum lycopersicum [8] = assay: Inhibition of root length of Solanum lycopersicum (tomato) at 10 uM after 5 days relative to untreated control; type: functional, organism-based
Allium cepa [9] = assay: Inhibition of germination of Allium cepa (onion) at 0.1 mM after 5 days relative to untreated control; type: functional; details: 120 h
Triticum aestivum [10] = assay: Inhibition of shoot length of Triticum aestivum (wheat) at 10 uM after 5 days relative to untreated control; type: functional, organism-based
Solanum lycopersicum [11] = assay: Inhibition of germination of Solanum lycopersicum (tomato) at 0.1 mM after 5 days relative to untreated control; type: functional; details: 120 h
Triticum aestivum [12] = assay: Inhibition of root length of Triticum aestivum (wheat) at 10 uM after 5 days relative to untreated control; type: functional; details: 120 h
Allium cepa [13] = assay: Inhibition of root length of Allium cepa (onion) at 10 uM after 5 days relative to untreated control; type: functional; details: 120 h
Hordeum vulgare [14] = assay: Inhibition of root length of Hordeum vulgare (barley) at 0.1 mM after 5 days relative to untreated control; type: functional; details: 120 h
Lepidium sativum [15] = assay: Stimulation of root length of Lepidium sativum at 0.1 mM after 5 days relative to untreated control; type: functional
Hordeum vulgare [16] = assay: Inhibition of germination of Hordeum vulgare (barley) at 0.1 mM after 5 days relative to untreated control; type: functional; details: 120 h
Triticum aestivum [17] = assay: Inhibition of root length of Triticum aestivum (wheat) at 0.1 mM after 5 days relative to untreated control; type: functional; details: 120 h
Allium cepa [18] = assay: Inhibition of shoot length of Allium cepa (onion) at 0.1 mM after 5 days relative to untreated control; type: functional; details: 120 h
Lepidium sativum [19] = assay: Stimulation of shoot length of Lepidium sativum at 0.1 mM after 5 days relative to untreated control; type: functional
Lactuca sativa [20] = assay: Inhibition of germination of Lactuca sativa cv. Roman (lettuce) at 0.1 mM after 5 days relative to untreated control; type: functional; details: 120 h
Solanum lycopersicum [21] = assay: Stimulation of shoot length of Solanum lycopersicum (tomato) at 0.1 mM after 5 days relative to untreated control; type: functional
Lactuca sativa [22] = assay: Stimulation of root length of Lactuca sativa cv. Roman (lettuce) at 0.1 mM after 5 days relative to untreated control; type: functional
Lactuca sativa [23] = assay: Stimulation of shoot length of Lactuca sativa cv. Roman (lettuce) at 0.1 mM after 5 days relative to untreated control; type: functional
Solanum lycopersicum [24] = assay: Inhibition of shoot length of Solanum lycopersicum (tomato) at 1 uM after 5 days relative to untreated control; type: functional; details: 120 h
Hordeum vulgare [25] = assay: Inhibition of root length of Hordeum vulgare (barley) at 10 uM after 5 days relative to untreated control; type: functional, organism-based
Lepidium sativum [26] = assay: Stimulation of shoot length of Lepidium sativum at 1 uM after 5 days relative to untreated control; type: functional
Lactuca sativa [27] = assay: Inhibition of shoot length of Lactuca sativa cv. Roman (lettuce) at 0.1 mM after 5 days relative to untreated control; type: functional; details: 120 h
Lactuca sativa [28] = assay: Inhibition of root length of Lactuca sativa cv. Roman (lettuce) at 0.1 mM after 5 days relative to untreated control; type: functional; details: 120 h
Triticum aestivum [29] = assay: Inhibition of germination of Triticum aestivum (wheat) at 0.1 mM after 5 days relative to untreated control; type: functional; details: 120 h
Solanum lycopersicum [30] = assay: Inhibition of germination of Solanum lycopersicum (tomato) at 10 uM after 5 days relative to untreated control; type: functional, organism-based
Lepidium sativum [31] = assay: Inhibition of germination of Lepidium sativum at 0.1 mM after 5 days relative to untreated control; type: functional; details: 120 h
Lepidium sativum [32] = assay: Inhibition of shoot length of Lepidium sativum at 0.1 mM after 5 days relative to untreated control; type: functional; details: 120 h
Solanum lycopersicum [33] = assay: Stimulation of germination of Solanum lycopersicum (tomato) at 0.1 mM after 5 days relative to untreated control; type: functional
Allium cepa [34] = assay: Stimulation of shoot length of Allium cepa (onion) at 0.1 mM after 5 days relative to untreated control; type: functional
Solanum lycopersicum [35] = assay: Inhibition of shoot length of Solanum lycopersicum (tomato) at 0.1 mM after 5 days relative to untreated control; type: functional; details: 120 h
Hordeum vulgare [36] = assay: Stimulation of root length of Hordeum vulgare (barley) at 0.1 mM after 5 days relative to untreated control; type: functional
Lepidium sativum [37] = assay: Stimulation of germination of Lepidium sativum at 0.1 mM after 5 days relative to untreated control; type: functional
Lactuca sativa [38] = assay: Inhibition of germination of Lactuca sativa cv. Nigra (lettuce) at 0.1 mM after 5 days relative to untreated control; type: functional; details: 120 h
Lactuca sativa [39] = assay: Stimulation of shoot length of Lactuca sativa cv. Nigra (lettuce) at 0.1 mM after 5 days relative to untreated control; type: functional
Allium cepa [40] = assay: Stimulation of germination of Allium cepa (onion) at 0.1 mM after 5 days relative to untreated control; type: functional
Triticum aestivum [41] = assay: Stimulation of germination of Triticum aestivum (wheat) at 0.1 mM after 5 days relative to untreated control; type: functional
Triticum aestivum [42] = assay: Stimulation of root length of Triticum aestivum (wheat) at 0.1 mM after 5 days relative to untreated control; type: functional
Solanum lycopersicum [43] = assay: Inhibition of root length of Solanum lycopersicum (tomato) at 0.1 mM after 5 days relative to untreated control; type: functional; details: 120 h
Lepidium sativum [44] = assay: Inhibition of shoot length of Lepidium sativum at 10 uM after 5 days relative to untreated control; type: functional, organism-based
Lepidium sativum [45] = assay: Inhibition of germination of Lepidium sativum at 10 uM after 5 days relative to untreated control; type: functional, organism-based
Hordeum vulgare [46] = assay: Inhibition of shoot length of Hordeum vulgare (barley) at 10 uM after 5 days relative to untreated control; type: functional, organism-based
Hordeum vulgare [47] = assay: Stimulation of shoot length of Hordeum vulgare (barley) at 0.1 mM after 5 days relative to untreated control; type: functional
Lactuca sativa [48] = assay: Inhibition of root length of Lactuca sativa cv. Nigra (lettuce) at 0.1 mM after 5 days relative to untreated control; type: functional; details: 120 h
Allium cepa [49] = assay: Stimulation of root length of Allium cepa (onion) at 0.1 mM after 5 days relative to untreated control; type: functional
Lepidium sativum [50] = assay: Inhibition of root length of Lepidium sativum at 10 uM after 5 days relative to untreated control; type: functional, organism-based
Lactuca sativa [51] = assay: Stimulation of root length of Lactuca sativa cv. Nigra (lettuce) at 0.1 mM after 5 days relative to untreated control; type: functional
Hordeum vulgare [52] = assay: Stimulation of germination of Hordeum vulgare (barley) at 0.1 mM after 5 days relative to untreated control; type: functional
Solanum lycopersicum [53] = assay: Stimulation of root length of Solanum lycopersicum (tomato) at 0.1 mM after 5 days relative to untreated control; type: functional
Allium cepa [54] = assay: Inhibition of root length of Allium cepa (onion) at 0.1 mM after 5 days relative to untreated control; type: functional; details: 120 h
Triticum aestivum [55] = assay: Inhibition of shoot length of Triticum aestivum (wheat) at 0.1 mM after 5 days relative to untreated control; type: functional; details: 120 h
Hordeum vulgare [56] = assay: Inhibition of shoot length of Hordeum vulgare (barley) at 0.1 mM after 5 days relative to untreated control; type: functional; details: 120 h
Allium cepa [57] = assay: Inhibition of shoot length of Allium cepa (onion) at 10 uM after 5 days relative to untreated control; type: functional; details: 120 h
Lepidium sativum [58] = assay: Inhibition of root length of Lepidium sativum at 0.1 mM after 5 days relative to untreated control; type: functional; details: 120 h

CO[C@@H]1OC(=O)C=C2C1=C[C@H]1OC(=O)[C@@]3(C)CCC[C@@]2(C)[C@@H]13
> 40%: inhibition at 100 µM (Lactuca sativa [7]) | inhibition at 100 µM (Allium cepa [9]) | inhibition at 100 µM (Solanum lycopersicum [11]) | inhibition at 100 µM (Hordeum vulgare [14]) | inhibition at 100 µM (Hordeum vulgare [16]) | inhibition at 100 µM (Triticum aestivum [17]) | inhibition at 100 µM (Allium cepa [18]) | inhibition at 100 µM (Lactuca sativa [20]) | inhibition at 100 µM (Lactuca sativa [27]) | inhibition at 100 µM (Lactuca sativa [28]) | inhibition at 100 µM (Triticum aestivum [29]) | inhibition at 100 µM (Lepidium sativum [31]) | inhibition at 100 µM (Lepidium sativum [32]) | inhibition at 100 µM (Solanum lycopersicum [35]) | inhibition at 100 µM (Solanum lycopersicum [43]) | inhibition at 100 µM (Lactuca sativa [48]) | inhibition at 100 µM (Allium cepa [54]) | inhibition at 100 µM (Triticum aestivum [55]) | inhibition at 100 µM (Hordeum vulgare [56]) | inhibition at 100 µM (Lepidium sativum [58])
-44%: Activity (Lepidium sativum [1]) | inhibition at 1 µM (Solanum lycopersicum [24])
-45%: inhibition at 1 µM (Solanum lycopersicum [6])
20%: Activity (Lactuca sativa [2]) | inhibition at 100 µM (Lactuca sativa [38])
-54%: inhibition at 10 µM (Allium cepa [13])
>40%: Activity (Lactuca sativa [4]) | Activity (Triticum aestivum [5]) | Activity (Lepidium sativum [15]) | Activity (Lepidium sativum [19]) | Activity (Solanum lycopersicum [21]) | Activity (Lactuca sativa [22]) | Activity (Lactuca sativa [23]) | Activity (Solanum lycopersicum [33]) | Activity (Allium cepa [34]) | Activity (Hordeum vulgare [36]) | Activity (Lepidium sativum [37]) | Activity (Lactuca sativa [39]) | Activity (Allium cepa [40]) | Activity (Triticum aestivum [41]) | Activity (Triticum aestivum [42]) | Activity (Hordeum vulgare [47]) | Activity (Allium cepa [49]) | Activity (Lactuca sativa [51]) | Activity (Hordeum vulgare [52]) | Activity (Solanum lycopersicum [53])
-42%: inhibition at 10 µM (Triticum aestivum [12])
active: inhibition (Solanum lycopersicum [3]) | inhibition (Solanum lycopersicum [8]) | inhibition (Solanum lycopersicum [30]) | inhibition (Lepidium sativum [44]) | inhibition (Lepidium sativum [45]) | inhibition (Lepidium sativum [50])
-73%: Activity (Lepidium sativum [26])
inactive: inhibition (Triticum aestivum [10]) | inhibition (Hordeum vulgare [25]) | inhibition (Hordeum vulgare [46])
-74%: inhibition at 10 µM (Allium cepa [57])
